Data on one compound can be found in patent US20260335288A1, “Pharmacologic Targeting of Genetic Factors That Control Jet Lag” (University of Pittsburgh-Of the Commonwealth System of …, priority 2022, published 2026).

SMILES strings stand for the structures.

Assay [1] deals with human pulmonary artery endothelial cells (PAECs). As to the kind of experiment: Caspase-Glo 3/7 apoptosis assay in human pulmonary artery endothelial cells. The note with it: compound 173 treatment, 5 mM (so in the source), FIG. 5 panels A & D. In kind it is cell-based. As for the experimental part:
(§1) Cell Culture. Primary human pulmonary artery endothelial cells (HPAECs) or mouse fibroblasts harboring a luciferase reporter under the control of a Period 2 (PER2) promoter (MF-Luc) were seeded into tissue culture dishes (Perkin Elmer) in a humidified incubator at 37 °C and 5% CO2. For knockdown experiments, cells were pre-treated with 20 nM “Silencer Select” scrambled silencing RNA (siNC) or with antisense targeting of Np/(siNPL) for 48 hours (ThermoFisher). For chemical treatments, cells were treated with vehicle (DMSO) or 5 mM 173.
Apoptosis. Apoptosis was measured using the Caspase-Glo 3/7 Assay System (Promega) according to the manufacturer's instructions.

The next assay relates to MF-Luc cells. Kind of assay: Lumicycle recording of circadian period in MF-Luc cells (PER2 promoter luciferase reporter). In kind it is cell-based, mouse. The note with it: compound 173 treatment, 5 mM (so in the source), recorded 7 days, FIG. 4 and FIG. 5 panels C & F. As to the method: as §1
Lumicycle Recording. Prior to circadian measurement, cells were synchronized with […] forskolin (Sigma) in Dulbecco's Modified Eagle Medium (DMEM) supplemented with 0.1% fetal bovine serum, and 100 mM Beetle luciferin (Promega) luciferase substrate was added for bioluminescent recording. Culture dishes were then sealed with sterile vacuum grease and placed in the Lumicycle 96 (Actimetrics) in a dehumidified incubator at 37 °C. Luminescence was recorded continuously for 7 days, and the initial 12 hours of data was omitted from the analysis to allow time for cell synchronization. […] Period was calculated as 2p/w. Period was analyzed if the R^2 was greater than 0.8.
(In general: Reporter assays use an easily measured gene product as a stand-in for the process of interest.)

Assay [2] deals with human pulmonary artery endothelial cells (PAECs). Kind of assay: BrdU cell proliferation assay in human pulmonary artery endothelial cells. In kind it is cell-based. The note with it: compound 173 treatment, 5 mM (so in the source), FIG. 5 panels B & E. As to the method:
as §1
Cell Proliferation. Cell proliferation was measured using the BrdU Cell Proliferation Assay Kit (Cell Signaling Technologies) according to the manufacturer's instructions.

In the case of `Cc1ccc(-c2n[nH]c3c2C2(C(=O)N(C)c4ccccc42)N(C)C3=O)c(O)c1` (stereo not shown) [Compound 173], the Apoptosis result in assay [1] is on record as “increased”. The values for the Circadian period length result with MF-Luc cells and in the assay with MF-Luc cells (listed as compound 173) were “decreased” and “significantly decreased”, respectively. Moreover, in assay [2], the Proliferation entry is recorded as “decreased”.
